Measured values: ChEMBL document CHEMBL1201861, “Genomics of Drug Sensitity in Cancer screening data, Wellcome Trust Sanger Institute”
Blank lines part the entries; values can stand above or below the compound they belong to.

Legend:
Test in all cases: cells
Type in all cases: functional, cell-based, Homo sapiens
ES6 = details: Homo sapiens, ES6;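 note: growth inhibition of human ES6 cells, read out with a cell viability assay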
Description: SANGER: Inhibition of human ES6 cell growth in a cell viability assay.

C-33-A = details: Homo sapiens, C-33-A;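 note: cell viability assay measuring growth inhibition of C-33-A cells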
Description: SANGER: Inhibition of human C-33-A cell growth in a cell viability assay.

Calu-3 = details: Homo sapiens, Calu-3;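 note: growth inhibition of human Calu-3 cells, determined with a cell viability assay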
Description: SANGER: Inhibition of human Calu-3 cell growth in a cell viability assay.

CFPAC-1 = details: Homo sapiens, CFPAC-1;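 note: cell viability readout used to gauge suppression of CFPAC-1 cell proliferation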
Description: SANGER: Inhibition of human CFPAC-1 cell growth in a cell viability assay.

Daoy = details: Homo sapiens, Daoy;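 note: daoy cell growth inhibition, read out as cell viability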
Description: SANGER: Inhibition of human Daoy cell growth in a cell viability assay.

SW1573 = details: Homo sapiens, SW1573;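 note: growth inhibition of SW1573 cells, read out with a cell viability assay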
Description: SANGER: Inhibition of human SW1573 cell growth in a cell viability assay.

RCC10RGB = details: Homo sapiens, RCC10RGB;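 note: growth inhibition of human RCC10RGB cells, read out by a cell viability assay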
Description: SANGER: Inhibition of human RCC10RGB cell growth in a cell viability assay.

NCI-H1563 = details: Homo sapiens, NCI-H1563;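 note: growth inhibition of human NCI-H1563 cells, read out with a cell viability assay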
Description: SANGER: Inhibition of human NCI-H1563 cell growth in a cell viability assay.

LS-411N = details: Homo sapiens, LS-411N
AN3-CA = details: Homo sapiens, AN3-CA;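 note: growth inhibition of human AN3-CA cells measured by a cell viability assay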
Description: SANGER: Inhibition of human AN3-CA cell growth in a cell viability assay.

JAR = details: Homo sapiens, JAR;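 note: growth inhibition of human JAR cells determined with a cell viability assay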
Description: SANGER: Inhibition of human JAR cell growth in a cell viability assay.

OE33 = details: Homo sapiens, OE33;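 note: growth inhibition of human OE33 cells, measured by a cell viability assay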
Description: SANGER: Inhibition of human OE33 cell growth in a cell viability assay.

HD-MY-Z = details: Homo sapiens, HD-MY-Z;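 note: growth inhibition of HD-MY-Z cells, read out with a cell viability assay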
Description: SANGER: Inhibition of human HD-MY-Z cell growth in a cell viability assay.

KGN = details: Homo sapiens, KGN;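 note: growth inhibition of KGN cells, read out with a cell viability assay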
Description: SANGER: Inhibition of human KGN cell growth in a cell viability assay.

UO-31 = details: Homo sapiens, UO-31;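 note: cell viability assay measuring inhibition of cell growth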
Description: SANGER: Inhibition of human U031 cell growth in a cell viability assay.

Hs-578T = details: Homo sapiens, Hs-578T
Description: SANGER: Inhibition of human Hs-578-T cell growth in a cell viability assay.

FTC-133 = details: Homo sapiens, FTC-133
TE-8 = details: Homo sapiens, TE-8;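 note: growth inhibition of TE-8 cells, measured with a cell viability readout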
Description: SANGER: Inhibition of human TE-8 cell growth in a cell viability assay.

PANC-08-13 = details: Homo sapiens, PANC-08-13;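 note: cell growth inhibition, measured with a cell viability assay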
Description: SANGER: Inhibition of human PANC-08-13 cell growth in a cell viability assay.

S-117 = details: Homo sapiens, S-117
Description: SANGER: Inhibition of human S-117 cell growth in a cell viability assay.

BEN = details: Homo sapiens, BEN;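 note: growth inhibition of the BEN cell line, read out with a cell viability assay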
Description: SANGER: Inhibition of human BEN cell growth in a cell viability assay.

D-542MG = details: Homo sapiens, D-542MG
Description: SANGER: Inhibition of human D-542MG cell growth in a cell viability assay.

KYSE-140 = details: Homo sapiens, KYSE-140;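 note: cell viability assay measuring growth inhibition in human KYSE-140 cells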
Description: SANGER: Inhibition of human KYSE-140 cell growth in a cell viability assay.

GCIY = details: Homo sapiens, GCIY;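 note: growth inhibition of the human GCIY cell line, read out by a cell viability assay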
Description: SANGER: Inhibition of human GCIY cell growth in a cell viability assay.

769-P = details: Homo sapiens, 769-P
Description: SANGER: Inhibition of human 769-P cell growth in a cell viability assay.

TYK-nu = details: Homo sapiens, TYK-nu;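 note: growth inhibition of human TYK-nu cells, read out by a cell viability assay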
Description: SANGER: Inhibition of human TYK-nu cell growth in a cell viability assay.

EW-16 = details: Homo sapiens, EW-16;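 note: growth inhibition of human EW-16 cells, read out as cell viability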
Description: SANGER: Inhibition of human EW-16 cell growth in a cell viability assay.

SCC-9 = details: Homo sapiens, SCC-9;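 note: Read-out is a cell viability assay, with values giving inhibition of cell growth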
Description: SANGER: Inhibition of human SCC-9 cell growth in a cell viability assay.

NCI-H2122 = details: Homo sapiens, NCI-H2122;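 note: growth inhibition of the cells, read out with a cell viability assay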
Description: SANGER: Inhibition of human NCI-H2122 cell growth in a cell viability assay.

C2BBe1 = details: Homo sapiens, C2BBe1;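 note: growth inhibition of C2BBe1 cells, read out through a viability assay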
Description: SANGER: Inhibition of human C2BBe1 cell growth in a cell viability assay.

EFM-19 = details: Homo sapiens, EFM-19;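 note: growth inhibition of human EFM-19 cells, measured in a cell viability assay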
Description: SANGER: Inhibition of human EFM-19 cell growth in a cell viability assay.

MDA-MB-231 = details: Homo sapiens, MDA-MB-231
Description: SANGER: Inhibition of human MDA-MB-231 cell growth in a cell viability assay.

no-10 = details: Homo sapiens;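 note: growth inhibition of no-10 cells, read out with a cell viability assay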
Description: SANGER: Inhibition of human no-10 cell growth in a cell viability assay.

C32 = details: Homo sapiens, C32;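 note: cell viability assay, with IC50 reflecting inhibition of C32 cell growth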
Description: SANGER: Inhibition of human C32 cell growth in a cell viability assay.

SK-PN-DW = details: Homo sapiens, SK-PN-DW;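 note: growth inhibition measured with a viability assay on these cells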
Description: SANGER: Inhibition of human SK-PN-DW cell growth in a cell viability assay.

COLO-684 = details: Homo sapiens, COLO-684
Description: SANGER: Inhibition of human COLO-684 cell growth in a cell viability assay.

Ca-Ski = details: Homo sapiens, Ca-Ski;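 note: cell viability assay measuring inhibition of Ca-Ski cell growth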
Description: SANGER: Inhibition of human Ca-Ski cell growth in a cell viability assay.

NCI-H446 = details: Homo sapiens, NCI-H446;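 note: growth inhibition of NCI-H446 cells determined by a cell viability assay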
Description: SANGER: Inhibition of human NCI-H446 cell growth in a cell viability assay.

HAL-01 = details: Homo sapiens, HAL-01;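 note: growth inhibition of human HAL-01 cells, read out with a cell viability assay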
Description: SANGER: Inhibition of human HAL-01 cell growth in a cell viability assay.

DU-4475 = details: Homo sapiens, DU-4475
Description: SANGER: Inhibition of human DU-4475 cell growth in a cell viability assay.

NCI-H510A = details: Homo sapiens, NCI-H510A;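 note: growth inhibition of NCI-H510A cells, read out with a cell viability assay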
Description: SANGER: Inhibition of human NCI-H510A cell growth in a cell viability assay.

- IC50 (ES6): 0.373 µM
- IC50 (C-33-A): 0.109 µM
- IC50 (Calu-3): 5.4 µM
- IC50 (CFPAC-1): 0.522 µM
- IC50 (Daoy): 0.141 µM
- IC50 (SW1573): 0.24 µM
- IC50 (RCC10RGB): 13.8 µM
- IC50 (NCI-H1563): 0.124 µM
- IC50 (LS-411N): 1.24 µM
- IC50 (AN3-CA): 0.898 µM
- IC50 (JAR): 0.0026 µM
- IC50 (OE33): 0.695 µM
- IC50 (HD-MY-Z): 0.395 µM
- IC50 (KGN): 0.436 µM
- IC50 (UO-31): 0.184 µM
- IC50 (Hs-578T): 0.0236 µM
- IC50 (FTC-133): 0.607 µM
- IC50 (TE-8): 0.129 µM
- IC50 (PANC-08-13): 3.77 µM
- IC50 (S-117): 0.213 µM
- IC50 (BEN): 7.41 µM
- IC50 (D-542MG): 0.462 µM
- IC50 (KYSE-140): 0.186 µM
- IC50 (GCIY): 0.0208 µM
- IC50 (769-P): 0.137 µM
- IC50 (TYK-nu): 0.324 µM
- IC50 (EW-16): 0.185 µM
- IC50 (SCC-9): 0.957 µM
- IC50 (NCI-H2122): 0.538 µM
- IC50 (C2BBe1): 0.266 µM
- IC50 (EFM-19): 1.59 µM
- IC50 (MDA-MB-231): 0.108 µM
- IC50 (no-10): 0.277 µM
- IC50 (C32): 2.02 µM
Structure (SMILES): CC(C)c1ccccc1Cc1cc(C(=O)Nc2ccc(S(=O)(=O)c3ccccc3C(C)(C)C)cc2)c(O)c(O)c1O

Structure (SMILES): CC(C)CCN1c2nc(Nc3cc(F)c(O)c(F)c3)ncc2N(C)C(=O)C1C (stereo not given)
- IC50 (ES6): > 5 µM
- IC50 (C-33-A): > 5 µM
- IC50 (Calu-3): > 5 µM
- IC50 (CFPAC-1): > 5 µM
- IC50 (Daoy): 0.988 µM
- IC50 (SW1573): > 5 µM
- IC50 (RCC10RGB): > 5 µM
- IC50 (NCI-H1563): > 5 µM
- IC50 (LS-411N): > 5 µM
- IC50 (AN3-CA): > 5 µM
- IC50 (JAR): > 5 µM
- IC50 (SK-PN-DW): > 5 µM
- IC50 (OE33): > 5 µM
- IC50 (HD-MY-Z): 3.37 µM
- IC50 (KGN): > 5 µM
- IC50 (UO-31): > 5 µM
- IC50 (Hs-578T): > 5 µM
- IC50 (COLO-684): > 5 µM
- IC50 (Ca-Ski): 3.48 µM
- IC50 (FTC-133): > 5 µM
- IC50 (TE-8): 3.19 µM
- IC50 (PANC-08-13): > 5 µM
- IC50 (S-117): > 5 µM
- IC50 (NCI-H446): 3.68 µM
- IC50 (BEN): > 5 µM
- IC50 (D-542MG): > 5 µM
- IC50 (HAL-01): > 5 µM
- IC50 (KYSE-140): > 5 µM
- IC50 (GCIY): 4.71 µM
- IC50 (769-P): > 5 µM
- IC50 (TYK-nu): 3.54 µM
- IC50 (EW-16): > 5 µM
- IC50 (SCC-9): > 5 µM
- IC50 (NCI-H2122): > 5 µM
- IC50 (C2BBe1): > 5 µM
- IC50 (EFM-19): > 5 µM
- IC50 (MDA-MB-231): 4.72 µM
- IC50 (no-10): > 5 µM
- IC50 (DU-4475): 0.504 µM
- IC50 (C32): 3.97 µM

Structure (SMILES): Nc1cccc2c1CN(C1CCC(=O)NC1=O)C2=O (stereo not given) [LENALIDOMIDE]
- IC50 (ES6): > 5 µM
- IC50 (C-33-A): > 5 µM
- IC50 (Calu-3): > 5 µM
- IC50 (CFPAC-1): > 5 µM
- IC50 (Daoy): > 5 µM
- IC50 (SW1573): > 5 µM
- IC50 (RCC10RGB): > 5 µM
- IC50 (NCI-H1563): > 5 µM
- IC50 (LS-411N): > 5 µM
- IC50 (AN3-CA): > 5 µM
- IC50 (JAR): 2.97 µM
- IC50 (SK-PN-DW): > 5 µM
- IC50 (OE33): > 5 µM
- IC50 (HD-MY-Z): > 5 µM
- IC50 (KGN): > 5 µM
- IC50 (UO-31): > 5 µM
- IC50 (Hs-578T): > 5 µM
- IC50 (COLO-684): > 5 µM
- IC50 (Ca-Ski): > 5 µM
- IC50 (FTC-133): > 5 µM
- IC50 (TE-8): > 5 µM
- IC50 (PANC-08-13): > 5 µM
- IC50 (S-117): > 5 µM
- IC50 (NCI-H446): > 5 µM
- IC50 (BEN): > 5 µM
- IC50 (D-542MG): > 5 µM
- IC50 (HAL-01): > 5 µM
- IC50 (KYSE-140): > 5 µM
- IC50 (GCIY): > 5 µM
- IC50 (769-P): > 5 µM
- IC50 (TYK-nu): > 5 µM
- IC50 (EW-16): > 5 µM
- IC50 (SCC-9): > 5 µM
- IC50 (NCI-H2122): > 5 µM
- IC50 (C2BBe1): > 5 µM
- IC50 (EFM-19): > 5 µM
- IC50 (MDA-MB-231): > 5 µM
- IC50 (no-10): > 5 µM
- IC50 (DU-4475): > 5 µM
- IC50 (C32): > 5 µM
- IC50 (NCI-H510A): > 5 µM
